This is an account of results in patent US20260069694A1, “IDENTIFICATION OF HIGHLY IMMUNOSUPRESIVE TREG POPULATION IN TUMOR MICROENVIRONMENTS” (THE TRUSTEES OF COLUMBIA UNIVERSITY IN THE CITY OF NEW YORK, priority 2023, published 2026).

The test system of test [1] is naïve CD4+ T cells / CD4+CD25+Foxp3+ iTregs. The test is described as follows: iTreg induction from naive CD4+ T cells in the absence or presence of iRGD or iRGE. Type of test: cell-based, mouse. The procedure:
(§1) Naïve CD4^+ T cells and nTregs were isolated from the spleen of healthy C57B6129SF1/J mice by magnetic separation using a mouse CD4+ T cell isolation kit and PE-conjugated anti-mouse CD25 with anti-PE magnetic separation micro beads (Miltenyi Biotec™). The isolated T cells were stimulated with anti-CD3/CD28 beads (×25 dilution; Miltenyi Biotec™) in the presence or absence of recombinant mouse TGF-β1 (5 ng/ml; Bio-Techne™ Corporation) for 3 days. iRGD (100 μM) or iRGE (100 μM) peptide was added to the cultures in some experiments. To study the effect of TGF-β1 on the induction of αvβ5 integrin+ iTregs, naïve CD4+ T cells were cultured with anti-CD3/CD28 beads (x 25 dilution) and TGF-β1 (5 ng/ml) in the presence or absence of varying concentrations of a TGF-βR1 inhibitor (LY2157299; Selleck™ Chemicals LLC). To study the effect of TCR stimulation on the induction of αvβ5 integrin+ iTregs, naïve CD4+ T cells treated with varying concentrations of plate-coated anti-mouse CD3 Ab (eBioscience™) in the presence of soluble anti-mouse CD28 Ab (2 μg/ml) (eBioscience™) and TGF-β1 (5 ng/ml). The cells were subjected to flow cytometry as described elsewhere.
For the data presented in FIG. 31, FIG. 32A, and FIG. 32B, naïve CD4+ T cells were stimulated with anti-CD3/CD28 Abs and TGF-β1 in the absence or presence of iRGD or iRGE. Flow cytometry was performed to quantify the proportion of CD4+CD25+Foxp3+ iTregs (see FIG. 31) and αvβ5 integrin+ cells among the iTregs (See FIG. 32A). Apoptosis of αvβ5 integrin+ iTregs was quantitated by measuring cleaved caspase 3 using flow cytometry (see FIG. 32B; n=3).
To investigate whether iRGD Reduces CD4+CD25+Foxp3+ iTregs in an RGD-Dependent Manner in Vitro, naïve CD4+ T cells were stimulated with anti-CD3/CD28 Abs and TGF-β1 in the absence or presence of the iRGD or iRGE peptide. The resulting cells were subjected to flow cytometry to analyze the expression of CD25 and Foxp3 in the CD4+ T cells (FIG. 33A) and the expression of the αvβ5 integrin and NRP-1 on CD4+CD25+Foxp3+ iTregs (FIG. 33B). The bar diagram in (FIG. 33C) summarizes the proportion of NRP-1+ cells among the iTregs. The statistical analysis used was the one-way ANOVA; p=0.8221. n=3 per group.
The proportion of apoptotic αvβ5 integrin+ iTregs (FIG. 34) and CD4+Foxp3neg T cells (FIG. 35) was quantitated by measuring cleaved caspase 3 using flow cytometry. The statistical analysis used was Welch's t test; p=0.0705 (n=3). The dot plots and histograms of FIG. 33C and FIG. 35 show representative data from the 3 independent experiments. The error bars indicate the mean±standard error; N.S., not significant.

For the next test, the system named is naïve CD4+ T cells. The test can be described thus: iTreg induction from naive CD4+ T cells with TGF-βR1 inhibitor. The format is cell-based, mouse. The procedure: as §1
Naive CD4+ T cells isolated from healthy mice were expanded in the presence of anti-CD3/CD28 Abs, exogenous TGF-β1, and increasing doses of a TGF-βR1 inhibitor (LY2157299). […] The bar diagram of FIG. 25B summarizes the results from 3 independent experiments. The statistical analysis used was one-way ANOVA; p<0.0001 (0 vs 1), p<0.0001 (1 vs 3), p=0.0154 (3 vs 10).
The bar diagram of FIG. 26B summarizes the results from 3 independent experiments. The statistical analysis used was one-way ANOVA; p=0.3996 (αvβ5, 0 vs 1), p=0.5868 (αvβ5, 0 vs 3), p=0.2265 (NRP-1, 0 vs 1), p=0.5751 (NRP-1, 0 vs 3). The error bars indicate the mean±standard error; *p<0.05; ****p<0.0001; N.S., not significant.

[2] abbreviates: peptide 100 μM, anti-CD3/CD28 Abs and TGF-β1.

Regarding “CRGEKGPDC [iRGE, an iRGD variant that lacks the RGD motif, reference compound]”, the “apoptosis of CD4+Foxp3neg T cells (cleaved caspase 3)” value in test [1] (flow cytometry) was “Neither iRGD nor iRGE increased the apoptosis”. Further, in test [1] (setting [2]), the “proportion of CD4+CD25+Foxp3+ iTregs” value is listed as “ineffective” and the “αvβ5 integrin-positive population among the iTregs” value is recorded as “ineffective”.

As to `Cc1cccc(-c2nn3c(c2-c2ccnc4ccc(C(N)=O)cc24)CCC3)n1` [LY2157299], in the test on naïve CD4+ T cells (among iTregs), the “proportion of the NRP-1-positive iTregs” value is given as “did not affect” and the “proportion of the αvβ5-positive iTregs” value was “did not affect”. The “development of iTregs (CD4+Foxp3+ T cells) from naïve CD4+ T cells” value in the test with naïve CD4+ T cells (anti-CD3/CD28 Abs, exogenous TGF-β1, increasing doses of inhibitor) is “suppressed the development of iTregs from naïve CD4+ T cells in a dose-dependent manner”.
